Patent publication US10294202B2, “Pyrrolidinones as herbicides” (FMC Corporation, priority 2013, dated 2019)

How the values were obtained:
Experiment in all cases: Test C pre-/postemergence herbicide test
[1] = tested on: surinam grass; type: in vivo, Brachiaria decumbens
Description: (§1) Seeds of plant species selected from blackgrass (Alopecurus myosuroides), ryegrass, Italian (Italian ryegrass, Lolium multiflorum), wheat (winter wheat, Triticum aestivum), galium (catchweed bedstraw, Galium aparine), corn (Zea mays), crabgrass, large (large crabgrass, Digitaria sanguinalis), foxtail, giant (giant foxtail, Setaria faberii), johnsongrass (Sorghum halepense), lambsquarters (Chenopodium album), morningglory (Ipomoea coccinea), nutsedge, yellow (yellow nutsedge, Cyperus esculentus), pigweed (Amaranthus retroflexus), ragweed (common ragweed, Ambrosia elatior), soybean (Glycine max), barnyardgrass (Echinochloa crus-galli), oilseed rape (Brassica napus), waterhemp (common waterhemp, Amaranthus rudis), kochia (Kochia scoparia), oat, wild (wild oat, Avena fatua), surinam grass (Brachiaria decumbens), foxtail, green (green foxtail, Setaria viridis), goosegrass (Eleusine indica), bromegrass, downy (downy bromegrass, Bromus tectorum), nightshade (eastern black nightshade, Solanum ptycanthum), cocklebur (common cocklebur, Xanthium strumarium), cupgrass, woolly (woolly cupgrass, Eriochloa villosa), bermudagrass (Cynodon dactylon), sunflower, (common oilseed sunflower, Helianthus annuus), Russian thistle (Salsola kali) and velvetleaf (Abutilon theophrasti) were planted into a blend of loam soil and sand and treated preemergence with test chemicals formulated in a non-phytotoxic solvent mixture which included a surfactant. At the same time, plants selected from these crop and weed species and also barley (winter barley, Hordeum vulgare), […]), chickweed (common chickweed, Stellaria media), deadnettle (henbit deadnettle, Lamium amplexicaule), and canarygrass (littleseed canarygrass, Phalaris minor) were planted in pots containing Redi-Earth® planting medium (Scotts Company, 14111 Scottslawn Road, Marysville, Ohio 43041) comprising spaghnum peat moss, vermiculite, wetting agent and starter nutrients and treated with postemergence applications of test chemicals formulated in the same manner. Plants ranged in height from 2 to 18 cm (1- to 4-leaf stage) for postemergence treatments. Treated plants and controls were maintained in a greenhouse for 13 to 15 days, after which time all species were compared to controls and visually evaluated. Plant response ratings, summarized in Table C, are based on a scale of 0 to 100 where 0 is no effect and 100 is complete control. A dash (-) response means no test result.

[2] = tested on: goosegrass; type: in vivo, Eleusine indica
Description: as §1

[3] = tested on: bromegrass, downy; type: in vivo, Bromus tectorum
Description: as §1

[4] = tested on: sunflower; type: in vivo, Helianthus annuus; details: Preemergence
Description: as §1

[5] = tested on: bermudagrass; type: in vivo, Cynodon dactylon
Description: as §1

[6] = tested on: foxtail, green; type: in vivo, Setaria viridis
Description: as §1

[7] = tested on: nightshade; type: in vivo, Solanum ptycanthum; details: Preemergence
Description: as §1

[8] = tested on: cocklebur; type: in vivo, Xanthium strumarium
Description: as §1

[9] = tested on: Russian thistle; type: in vivo, Salsola kali; details: Preemergence
Description: as §1

[10] = Preemergence, 62 g ai/ha, scale 0 to 100
[11] = Preemergence, 125 g ai/ha, scale 0 to 100 (0 no effect, 100 complete control)
[12] = Preemergence, 31 g ai/ha, scale 0 to 100 (0 no effect, 100 complete control)
[13] = Preemergence, 250 g ai/ha, scale 0 to 100 (0 no effect, 100 complete control)
[14] = 125 g ai/ha, scale 0 to 100 (0 no effect, 100 complete control)
[15] = Postemergence, 31 g ai/ha, scale 0 (no effect) to 100 (complete control)
[16] = Postemergence, 62 g ai/ha, scale 0 to 100 (0 no effect, 100 complete control)
[17] = Postemergence, 125 g ai/ha, scale 0 to 100 (0 no effect, 100 complete control)
[18] = Postemergence, 250 g ai/ha, scale 0 to 100 (0 no effect, 100 complete control)
[19] = Preemergence, 31 g ai/ha, scale 0 to 100, 0 is no effect and 100 is complete control
[20] = 31 g ai/ha, scale 0 to 100, 0 is no effect and 100 is complete control

SMILES: O=C1NCC(c2cc(F)c(F)c(F)c2)C1C(=O)Nc1ccccc1C(F)(F)F (racemic) [Compound 33]
- Plant response rating, Surinam Grass [1, 10]: 80
- Plant response rating, Surinam Grass [1, 11]: 95
- Goosegrass plant response rating [2, 12]: 5
- Plant response rating, Goosegrass [2, 10]: 5
- Plant response rating, Goosegrass [2, 11]: 40
- Bromegrass, Downy plant response rating [3, 12]: 0
- Plant response rating, Bromegrass, Downy [3, 10]: 0
- Plant response rating, Bromegrass, Downy [3, 11]: 0
- Plant response rating, Bromegrass, Downy [3, 13]: 55
- Plant response rating Sunflower ([4]; 62 g ai/ha, scale 0 to 100): 10
- Bermudagrass plant response rating [5, 12]: 0
- Plant response rating, Bermudagrass [5, 10]: 0
- Plant response rating, Bermudagrass [5, 11]: 70
- Plant response rating, Bermudagrass [5, 13]: 98
- Foxtail, Green plant response rating [6, 12]: 95
- Plant response rating, Foxtail, Green [6, 10]: 98
- Plant response rating, Foxtail, Green [6, 11]: 100
- Plant response rating, Foxtail, Green [6, 13]: 100
- Plant response rating, Nightshade ([7]; 62 g ai/ha, scale 0 to 100): 0
- Plant response rating, Nightshade [7, 14]: 0
- Cocklebur plant response rating [8, 12]: 0
- Plant response rating, Cocklebur [8, 11]: 10
- Plant response rating, Cocklebur [8, 13]: 10

SMILES: O=C1NCC(c2cc(F)c(F)c(F)c2)C1C(=O)Nc1ccccc1F (racemic) [Compound 34]
- Plant response rating, Surinam Grass [1, 15]: 0
- Plant response rating, Surinam Grass [1, 16]: 0
- Plant response rating, Surinam Grass [1, 17]: 55
- Plant response rating, Surinam Grass [1, 18]: 60
- Plant response rating, Surinam Grass [1, 10]: 95
- Plant response rating, Surinam Grass [1, 11]: 100
- Plant response rating, Goosegrass [2, 15]: 10
- Plant response rating, Goosegrass [2, 16]: 15
- Plant response rating, Goosegrass [2, 17]: 15
- Plant response rating, Goosegrass [2, 18]: 25
- Goosegrass plant response rating [2, 12]: 0
- Plant response rating, Goosegrass [2, 10]: 5
- Plant response rating, Goosegrass [2, 11]: 10
- Plant response rating, Bromegrass, Downy [3, 15]: 0
- Plant response rating, Bromegrass, Downy [3, 16]: 0
- Plant response rating, Bromegrass, Downy [3, 17]: 0
- Plant response rating, Bromegrass, Downy [3, 18]: 0
- Bromegrass, Downy plant response rating [3, 12]: 0
- Plant response rating, Bromegrass, Downy [3, 10]: 0
- Plant response rating, Bromegrass, Downy [3, 11]: 10
- Plant response rating, Bromegrass, Downy [3, 13]: 30
- Plant response rating Sunflower ([4]; 62 g ai/ha, scale 0 to 100): 0
- Plant response rating Sunflower [4, 14]: 0
- Plant response rating, Bermudagrass [5, 15]: 0
- Plant response rating, Bermudagrass [5, 16]: 0
- Plant response rating, Bermudagrass [5, 17]: 0
- Plant response rating, Bermudagrass [5, 18]: 0
- Bermudagrass plant response rating [5, 12]: 0
- Plant response rating, Bermudagrass [5, 10]: 0
- Plant response rating, Bermudagrass [5, 11]: 0
- Plant response rating, Bermudagrass [5, 13]: 45
- Plant response rating, Foxtail, Green [6, 15]: 0
- Plant response rating, Foxtail, Green [6, 16]: 60
- Plant response rating, Foxtail, Green [6, 17]: 60
- Plant response rating, Foxtail, Green [6, 18]: 60
- Foxtail, Green plant response rating [6, 12]: 98
- Plant response rating, Foxtail, Green [6, 10]: 98
- Plant response rating, Foxtail, Green [6, 11]: 98
- Plant response rating, Foxtail, Green [6, 13]: 100
- Plant response rating, Russian Thistle ([9]; 62 g ai/ha, scale 0 to 100): 0
- Plant response rating, Russian Thistle [9, 14]: 0
- Plant response rating, Nightshade ([7]; 62 g ai/ha, scale 0 to 100): 0
- Plant response rating, Nightshade [7, 14]: 0
- Plant response rating, Cocklebur [8, 15]: 0
- Plant response rating, Cocklebur [8, 16]: 5
- Plant response rating, Cocklebur [8, 17]: 5
- Plant response rating, Cocklebur [8, 18]: 25
- Cocklebur plant response rating [8, 12]: 0
- Plant response rating, Cocklebur [8, 10]: 0
- Plant response rating, Cocklebur [8, 11]: 0
- Plant response rating, Cocklebur [8, 13]: 0

SMILES: O=C1NCC(c2ccc(Cl)c(F)c2)C1C(=O)Nc1ccccc1F (centres unmarked) [Compound 53]
- Plant response rating, Surinam Grass [1, 10]: 25
- Plant response rating, Surinam Grass [1, 11]: 75
- Goosegrass plant response rating [2, 12]: 0
- Plant response rating, Goosegrass [2, 10]: 10
- Plant response rating, Goosegrass [2, 11]: 30
- Bromegrass, Downy plant response rating [3, 12]: 0
- Plant response rating, Bromegrass, Downy [3, 10]: 0
- Plant response rating, Bromegrass, Downy [3, 11]: 0
- Plant response rating, Bromegrass, Downy [3, 13]: 0
- Plant response rating Sunflower ([4]; 62 g ai/ha, scale 0 to 100): 15
- Plant response rating Sunflower [4, 14]: 20
- Bermudagrass plant response rating [5, 12]: 40
- Plant response rating, Bermudagrass [5, 10]: 40
- Plant response rating, Bermudagrass [5, 11]: 50
- Plant response rating, Bermudagrass [5, 13]: 50
- Foxtail, Green plant response rating [6, 12]: 30
- Plant response rating, Foxtail, Green [6, 10]: 90
- Plant response rating, Foxtail, Green [6, 11]: 90
- Plant response rating, Foxtail, Green [6, 13]: 90
- Plant response rating, Nightshade ([7]; 62 g ai/ha, scale 0 to 100): 0
- Plant response rating, Nightshade [7, 14]: 40
- Plant response rating, Cocklebur [8, 11]: 5
- Plant response rating, Cocklebur [8, 13]: 5

SMILES: O=C1NCC(c2cccc(OC(F)(F)F)c2)C1C(=O)Nc1cccc(F)c1F (centres unmarked) [Compound 68]
- Surinam Grass plant response rating [1, 19]: 40
- Plant response rating, Surinam Grass [1, 10]: 75
- Plant response rating, Surinam Grass [1, 11]: 75
- Goosegrass plant response rating [2, 19]: 55
- Plant response rating, Goosegrass [2, 10]: 75
- Plant response rating, Goosegrass [2, 11]: 80
- Bromegrass, Downy plant response rating [3, 19]: 0
- Plant response rating, Bromegrass, Downy [3, 10]: 0
- Plant response rating, Bromegrass, Downy [3, 11]: 0
- Plant response rating, Bromegrass, Downy [3, 13]: 0
- Sunflower plant response rating [4, 20]: 0
- Plant response rating Sunflower ([4]; 62 g ai/ha, scale 0 to 100): 0
- Plant response rating Sunflower [4, 14]: 10
- Bermudagrass plant response rating [5, 19]: 30
- Plant response rating, Bermudagrass [5, 10]: 50
- Plant response rating, Bermudagrass [5, 11]: 85
- Plant response rating, Bermudagrass [5, 13]: 85
- Foxtail, Green plant response rating [6, 19]: 90
- Plant response rating, Foxtail, Green [6, 10]: 90
- Plant response rating, Foxtail, Green [6, 11]: 95
- Plant response rating, Foxtail, Green [6, 13]: 95
- Nightshade plant response rating [7, 20]: 10
- Plant response rating, Nightshade ([7]; 62 g ai/ha, scale 0 to 100): 50
- Plant response rating, Nightshade [7, 14]: 55
- Cocklebur plant response rating [8, 19]: 15
